Reference: US11208412B2 (DAEGU-GYEONGBUK MEDICAL INNOVATION FOUNDATION, priority 2017, dated 2021)

Assays:
Assay in all cases: Kinase selectivity, DiscoverX scanMAX Kinase assay panel (% control)
Type in all cases: binding
[1] = molecular target: T1, kinases of the scanMAX Kinase assay panel (Homo sapiens, UniProt P19525); conditions: PRKR; 1 uM
T1 construct: purchased DiscoverX Co. (contract measurement) scanMAX Kinase assay panel
In short: (§1)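 Compounds were tested at 1 uM (in DMSO) against each panel kinase. % control was calculated as (compound − positive control)/(negative control − positive control)×100, where the positive control gives 0% and DMSO gives 100%. Activity toward a kinase was called at % control <35%.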

[2] = molecular target: T2, kinases of the scanMAX Kinase assay panel (Homo sapiens, UniProt Q9UHD2); conditions: kinase TBK1; 1 uM in DMSO
T2 construct: purchased DiscoverX Co. (contract measurement) scanMAX Kinase assay panel
T2 sequence (Q9UHD2 1-729): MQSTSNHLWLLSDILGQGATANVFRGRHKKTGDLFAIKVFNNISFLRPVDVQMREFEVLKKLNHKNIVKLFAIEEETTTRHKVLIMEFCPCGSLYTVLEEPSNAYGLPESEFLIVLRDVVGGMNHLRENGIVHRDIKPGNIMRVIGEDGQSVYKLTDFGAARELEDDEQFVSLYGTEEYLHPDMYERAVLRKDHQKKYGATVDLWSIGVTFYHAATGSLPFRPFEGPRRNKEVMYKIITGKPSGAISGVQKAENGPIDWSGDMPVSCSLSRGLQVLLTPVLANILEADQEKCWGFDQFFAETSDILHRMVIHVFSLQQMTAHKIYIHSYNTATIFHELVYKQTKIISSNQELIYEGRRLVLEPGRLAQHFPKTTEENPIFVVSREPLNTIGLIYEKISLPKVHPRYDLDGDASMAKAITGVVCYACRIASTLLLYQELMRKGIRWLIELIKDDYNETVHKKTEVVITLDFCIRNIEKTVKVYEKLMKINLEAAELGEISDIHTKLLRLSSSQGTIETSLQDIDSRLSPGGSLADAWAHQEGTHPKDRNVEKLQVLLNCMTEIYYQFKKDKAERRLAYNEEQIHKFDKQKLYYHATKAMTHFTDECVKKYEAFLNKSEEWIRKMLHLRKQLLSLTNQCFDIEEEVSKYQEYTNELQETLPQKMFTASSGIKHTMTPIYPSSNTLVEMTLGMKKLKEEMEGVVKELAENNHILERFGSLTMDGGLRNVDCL
In short: as §1

[3] = molecular target: T3, kinases of the scanMAX Kinase assay panel (Homo sapiens, UniProt O14757); conditions: CHEK1; 1 uM
T3 construct: purchased DiscoverX Co. (contract measurement) scanMAX Kinase assay panel
T3 sequence (O14757 1-476): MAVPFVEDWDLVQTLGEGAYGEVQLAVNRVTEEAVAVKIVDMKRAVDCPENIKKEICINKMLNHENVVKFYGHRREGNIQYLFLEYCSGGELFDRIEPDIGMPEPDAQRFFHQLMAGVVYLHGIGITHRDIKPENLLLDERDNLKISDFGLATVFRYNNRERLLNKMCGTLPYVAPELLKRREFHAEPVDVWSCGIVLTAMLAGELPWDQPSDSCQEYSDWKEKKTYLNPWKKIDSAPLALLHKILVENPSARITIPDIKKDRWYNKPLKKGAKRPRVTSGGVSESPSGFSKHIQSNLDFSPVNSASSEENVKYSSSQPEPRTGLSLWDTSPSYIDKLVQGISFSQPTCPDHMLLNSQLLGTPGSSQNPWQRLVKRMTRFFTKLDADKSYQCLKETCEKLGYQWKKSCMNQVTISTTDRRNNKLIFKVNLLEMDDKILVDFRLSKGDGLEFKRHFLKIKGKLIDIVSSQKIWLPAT
In short: as §1

[4] = molecular target: T4, kinases of the scanMAX Kinase assay panel (Homo sapiens, UniProt Q00535); conditions: CDK5; 1 uM
T4 construct: purchased DiscoverX Co. (contract measurement) scanMAX Kinase assay panel
T4 sequence (Q00535 whole entry): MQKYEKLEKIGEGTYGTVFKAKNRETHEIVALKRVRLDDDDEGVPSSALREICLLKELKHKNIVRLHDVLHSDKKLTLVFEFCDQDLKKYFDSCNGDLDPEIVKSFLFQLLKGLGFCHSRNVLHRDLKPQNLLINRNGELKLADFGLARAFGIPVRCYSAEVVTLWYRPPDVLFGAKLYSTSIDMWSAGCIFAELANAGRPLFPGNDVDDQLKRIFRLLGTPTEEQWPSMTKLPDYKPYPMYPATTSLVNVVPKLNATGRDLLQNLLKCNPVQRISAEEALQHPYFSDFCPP
In short: as §1

[5] = molecular target: T5, kinases of the scanMAX Kinase assay panel (Homo sapiens, UniProt P49840); conditions: GSK3A; 1 uM
T5 construct: purchased DiscoverX Co. (contract measurement) scanMAX Kinase assay panel
T5 sequence (P49840 whole entry): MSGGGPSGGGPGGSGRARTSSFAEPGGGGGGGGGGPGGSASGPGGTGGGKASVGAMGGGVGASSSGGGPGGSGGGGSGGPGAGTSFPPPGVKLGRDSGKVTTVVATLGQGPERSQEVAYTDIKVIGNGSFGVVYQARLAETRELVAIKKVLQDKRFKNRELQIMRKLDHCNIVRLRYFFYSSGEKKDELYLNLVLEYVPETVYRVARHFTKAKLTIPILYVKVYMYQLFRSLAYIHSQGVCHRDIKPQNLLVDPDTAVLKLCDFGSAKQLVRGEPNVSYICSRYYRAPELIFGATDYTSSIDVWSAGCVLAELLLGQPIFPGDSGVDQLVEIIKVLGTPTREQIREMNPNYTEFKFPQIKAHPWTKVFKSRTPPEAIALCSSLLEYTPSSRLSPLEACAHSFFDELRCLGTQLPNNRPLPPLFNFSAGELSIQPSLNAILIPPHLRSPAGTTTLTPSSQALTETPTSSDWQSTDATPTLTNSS
In short: as §1

[6] = molecular target: T6, kinases of the scanMAX Kinase assay panel (Homo sapiens, UniProt P37173); conditions: kinase TGFBR2; 1 uM in DMSO
T6 construct: purchased DiscoverX Co. (contract measurement) scanMAX Kinase assay panel
T6 sequence (P37173 23-567): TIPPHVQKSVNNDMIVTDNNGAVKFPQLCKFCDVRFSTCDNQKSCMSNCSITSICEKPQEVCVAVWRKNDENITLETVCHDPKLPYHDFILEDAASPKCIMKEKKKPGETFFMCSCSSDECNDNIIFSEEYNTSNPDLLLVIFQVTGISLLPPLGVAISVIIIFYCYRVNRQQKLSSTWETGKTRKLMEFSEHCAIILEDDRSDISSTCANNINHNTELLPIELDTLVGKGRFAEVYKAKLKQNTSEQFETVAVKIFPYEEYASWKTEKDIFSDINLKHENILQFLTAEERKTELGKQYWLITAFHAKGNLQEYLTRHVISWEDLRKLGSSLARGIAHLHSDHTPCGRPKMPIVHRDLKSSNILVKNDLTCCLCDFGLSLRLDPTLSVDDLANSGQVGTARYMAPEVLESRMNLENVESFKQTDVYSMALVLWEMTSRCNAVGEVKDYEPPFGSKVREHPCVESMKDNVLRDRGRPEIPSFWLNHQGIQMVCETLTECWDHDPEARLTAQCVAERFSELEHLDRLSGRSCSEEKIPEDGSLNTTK
In short: as §1

[7] = molecular target: T7, kinases of the scanMAX Kinase assay panel (Homo sapiens, UniProt Q16539); conditions: p38-alpha; 1 uM
T7 construct: purchased DiscoverX Co. (contract measurement) scanMAX Kinase assay panel
T7 sequence (Q16539 whole entry): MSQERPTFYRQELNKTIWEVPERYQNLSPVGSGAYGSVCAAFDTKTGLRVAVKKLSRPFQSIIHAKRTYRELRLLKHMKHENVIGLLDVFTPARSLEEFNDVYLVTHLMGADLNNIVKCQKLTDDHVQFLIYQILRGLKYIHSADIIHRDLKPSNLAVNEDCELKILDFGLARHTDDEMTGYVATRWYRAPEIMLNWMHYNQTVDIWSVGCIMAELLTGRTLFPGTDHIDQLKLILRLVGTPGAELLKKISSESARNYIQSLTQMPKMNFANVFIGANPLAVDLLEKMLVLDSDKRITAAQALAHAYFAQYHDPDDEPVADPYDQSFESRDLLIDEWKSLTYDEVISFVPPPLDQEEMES
In short: as §1

[8] = molecular target: T8, kinases of the scanMAX Kinase assay panel (Homo sapiens, UniProt P46734); conditions: MEK3; 1 uM
T8 construct: purchased DiscoverX Co. (contract measurement) scanMAX Kinase assay panel
T8 sequence (P46734 1-347): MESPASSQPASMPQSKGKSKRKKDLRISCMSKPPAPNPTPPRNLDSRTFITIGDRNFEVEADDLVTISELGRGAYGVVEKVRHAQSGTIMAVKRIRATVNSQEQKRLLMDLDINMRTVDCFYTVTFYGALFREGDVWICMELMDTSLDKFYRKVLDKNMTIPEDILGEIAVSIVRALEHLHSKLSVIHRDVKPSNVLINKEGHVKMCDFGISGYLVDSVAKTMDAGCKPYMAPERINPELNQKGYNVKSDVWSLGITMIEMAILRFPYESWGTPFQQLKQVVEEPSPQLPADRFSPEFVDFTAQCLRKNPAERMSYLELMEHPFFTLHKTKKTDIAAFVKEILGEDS
In short: as §1

[9] = molecular target: T9, kinases of the scanMAX Kinase assay panel (Homo sapiens, UniProt P24941); conditions: CDK2; 1 uM
T9 construct: purchased DiscoverX Co. (contract measurement) scanMAX Kinase assay panel
In short: as §1

[10] = molecular target: T10, kinases of the scanMAX Kinase assay panel (Homo sapiens, UniProt Q13555); conditions: CAMK2G; 1 uM
T10 construct: purchased DiscoverX Co. (contract measurement) scanMAX Kinase assay panel
T10 sequence (Q13555 whole entry): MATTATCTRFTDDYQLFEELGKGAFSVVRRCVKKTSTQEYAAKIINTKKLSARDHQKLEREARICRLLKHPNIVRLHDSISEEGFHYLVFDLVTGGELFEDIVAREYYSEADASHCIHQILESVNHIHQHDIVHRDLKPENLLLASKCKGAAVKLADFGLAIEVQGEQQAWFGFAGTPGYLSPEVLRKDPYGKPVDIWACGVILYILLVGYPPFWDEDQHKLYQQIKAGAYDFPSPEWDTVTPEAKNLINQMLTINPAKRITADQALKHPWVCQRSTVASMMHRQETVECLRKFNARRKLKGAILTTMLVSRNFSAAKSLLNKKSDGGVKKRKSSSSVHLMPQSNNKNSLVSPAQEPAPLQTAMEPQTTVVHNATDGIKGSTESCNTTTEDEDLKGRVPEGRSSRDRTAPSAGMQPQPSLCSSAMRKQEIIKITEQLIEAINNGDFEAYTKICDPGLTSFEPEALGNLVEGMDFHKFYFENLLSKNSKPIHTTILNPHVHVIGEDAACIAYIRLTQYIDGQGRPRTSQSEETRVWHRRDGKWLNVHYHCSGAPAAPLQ
In short: as §1

T1 sequence (P19525 whole entry): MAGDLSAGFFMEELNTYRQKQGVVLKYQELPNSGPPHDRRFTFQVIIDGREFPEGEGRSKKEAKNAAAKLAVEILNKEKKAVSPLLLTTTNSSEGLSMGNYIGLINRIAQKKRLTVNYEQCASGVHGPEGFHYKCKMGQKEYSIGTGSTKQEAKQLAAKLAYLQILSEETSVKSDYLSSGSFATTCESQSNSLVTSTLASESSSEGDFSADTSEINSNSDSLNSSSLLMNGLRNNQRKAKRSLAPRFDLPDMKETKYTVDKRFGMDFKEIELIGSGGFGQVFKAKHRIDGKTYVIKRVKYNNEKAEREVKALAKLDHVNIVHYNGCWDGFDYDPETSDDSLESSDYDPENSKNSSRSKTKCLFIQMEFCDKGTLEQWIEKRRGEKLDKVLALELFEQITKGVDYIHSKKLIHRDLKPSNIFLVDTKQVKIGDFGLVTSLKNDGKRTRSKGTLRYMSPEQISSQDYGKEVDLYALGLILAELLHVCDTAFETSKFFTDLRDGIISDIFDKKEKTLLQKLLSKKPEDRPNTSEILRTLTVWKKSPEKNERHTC

Compound | remaining binding at 1 µM [1] | remaining binding at 1 µM [2] | remaining binding at 1 µM [3] | remaining binding at 1 µM [4] | remaining binding at 1 µM [5] | remaining binding at 1 µM [6] | remaining binding at 1 µM [7] | remaining binding at 1 µM [8] | remaining binding at 1 µM [9] | remaining binding at 1 µM [10]
CNc1nc(Nc2ccc(C(=O)N3CCOCC3)cc2OC)nc2[nH]cc(C#N)c12 [Example 1, 2-((2-methoxy-4-(morpholine-4-carbonyl)phenyl)amino)-4-(methylamino)-7H-pyrrolo[2,3-d]pyrimidine-5-carbonitrile] | 95% | 85% | 85% | 96% | 100% | 82% | 94% | 4.3% | 94% | 88%
CC1(Nc2nc(Nc3cnn([C@H]4CCN(C5COC5)C[C@@H]4F)c3Cl)nc3[nH]cc(C#N)c23)CC1 [Example 52, 2-((5-chloro-1-((3S,4S)-3-fluoro-1-(oxetane-3-yl)piperidine-4-yl)-1H-pyrazole-4-yl)amino)((1-methylcyclopropyl)amino)-7H-pyrrolo[2,3-d]pyrimidine-5-carbonitrile] | 42% | 4.8% | 26% | 63% | 12% | 100% | 91% | 0.8% | 96% | 53%
CCNc1nc(Nc2ccc(C(=O)N3CCC(N4CCOCC4)CC3)cc2OC)nc2[nH]cc(C(F)(F)F)c12 [Example 104, (4-((4-(ethylamino)-5-(trifluoromethyl)-7H-pyrrolo[2,3-d]pyrimidine-2-yl)amino)-3-methoxyphenyl)(4-morpholinopiperidine-1-yl)methanone] | 85% | 84% | 100% | 100% | 100% | 96% | 96% | 12% | 98% | 80%
